Laboratory results taken from ChEMBL document CHEMBL1201862, “PubChem BioAssay data set” (2004).
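Dose response: 5 concentrations. Exposure: 48 h. Format: 96-well plates. Endpoint: linear interpolation; highest concentration if not reached. At the GI50, growth is halved.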 Active and inactive are the calls of the source. Cut-off read from the data, not from the text of the source: active = GI50 up to about 1.1 µM and inactive = higher.

Tests used:
Experiment in all cases: growth of human tumour cells (NCI), 48 h
[1] = system: OVCAR-3
[2] = system: SNB-19
[3] = system: M19-MEL
[4] = system: LOX IMVI
[5] = system: DLD-1
[6] = system: DMS-114
[7] = system: HOP-62
[8] = system: SN12C
[9] = system: SNB-75
[10] = system: CCRF-CEM
[11] = system: UO-31
[12] = system: RPMI-8226
[13] = system: DMS-273
[14] = system: DU-145
[15] = system: HL-60
[16] = system: PC-3
[17] = system: A498
[18] = system: NCI/ADR-RES
[19] = system: MCF7
[20] = system: HOP-18

Measured: GI50

CC1SC(c2ccccc2)N(Nc2c3ccccc3nc3ccccc23)C1=O (configuration not stated)
inactive: [1] > 100 µM | [2] > 100 µM | [3] > 100 µM | [4] 89.1 µM | [5] 59.2 µM | [6] 45.5 µM | [7] > 100 µM | [8] > 100 µM | [9] 34.6 µM | [10] 69.8 µM | [11] 20.4 µM | [12] 58.7 µM | [13] > 100 µM

O=C1C=CC[C@H]2O[C@@H](COC(=O)Cc3ccccc3)C[C@H]2O1
inactive: [1] 38.6 µM | [2] 25.6 µM | [14] 88.9 µM | [7] 41.2 µM | [15] 16.5 µM | [8] 66.1 µM | [9] 30.4 µM | [16] 35.2 µM | [17] > 100 µM | [10] 41.4 µM | [11] 32 µM | [12] 28.8 µM | [18] 38 µM | [19] 44.3 µM

CCCCCCCCCCCCCCCCCC(=O)OCC1OC(OC)C(NC(=O)N(CCCl)N=O)C(O)C1O (configuration not stated)
inactive: [1] 26.9 µM | [2] 24.9 µM | [3] 71.4 µM | [4] 13.6 µM | [5] 28.1 µM | [20] 32.6 µM | [7] > 100 µM | [8] 11.4 µM | [9] 13.8 µM | [11] 24.3 µM | [12] 20.3 µM | [13] 16 µM

O=C1c2cccc3c2C(=O)c2c(cccc21)OCCOCCOCCOCCO3
inactive: [1] > 100 µM | [2] > 100 µM | [3] > 100 µM | [4] 78.2 µM | [5] > 100 µM | [6] 86.1 µM | [20] > 100 µM | [7] > 100 µM | [15] 74.5 µM | [8] > 100 µM | [9] 40.9 µM | [10] 47.2 µM | [11] 30.9 µM | [12] 55.2 µM | [13] > 100 µM

COc1cc(/C=C(\C#N)C(N)=O)cc(Br)c1O
inactive: [1] > 100 µM | [2] > 100 µM | [3] > 100 µM | [4] 29.7 µM | [5] 92 µM | [20] > 100 µM | [7] 92.3 µM | [10] > 100 µM | [11] 96.6 µM | [12] 70 µM | [18] > 100 µM | [13] > 100 µM | [19] 95.1 µM
